Laboratory results reported in PubChem BioAssay AID256 (DTP/NCI, 2004).
Where “and” joins values, the source holds several entries; their conditions need not be identical. Identical values can stand only once. Toxic doses and inconclusive results are not listed. The calls were made as follows: active = survival T/C of 150% or more; inactive = T/C below 125% in these data.

System: CD2F1 mice, L1210 leukemia ip, survival T/C
Assay: NCI In Vivo Anticancer Drug Screen. Data for tumor model L1210 Leukemia (intraperitoneal) in CD2F1 (CDF1) mice
Details: higher = longer survival
Summary of the method: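 In this screen, transplantable tumors were grown in mice given either the compound or its vehicle. Results were expressed as the treated measurement relative to the control measurement.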

[1] = endpoint: mean survival time, dose: 100.0 mg/kg/injection, schedule: Q04DX003 (ip), vehicle: saline
[2] = endpoint: mean survival time, dose: 200.0 mg/kg/injection, schedule: Q04DX002 (ip), vehicle: saline with Tween-80
[3] = endpoint: mean survival time, dose: 200.0 mg/kg/injection, schedule: Q04DX003 (ip), vehicle: saline
[4] = endpoint: mean survival time, dose: 100.0 mg/kg/injection, schedule: Q01DX009 (ip), vehicle: saline
[5] = endpoint: mean survival time, dose: 200.0 mg/kg/injection, schedule: Q01DX009 (ip), vehicle: saline
[6] = endpoint: mean survival time, dose: 400.0 mg/kg/injection, schedule: Q04DX003 (ip), vehicle: saline
[7] = endpoint: mean survival time, dose: 100.0 mg/kg/injection, schedule: Q04DX003 (ip), vehicle: Klucel (hydroxypropylcellulose) (HPC)
[8] = endpoint: mean survival time, dose: 200.0 mg/kg/injection, schedule: Q04DX003 (ip), vehicle: Klucel (hydroxypropylcellulose) (HPC)
[9] = endpoint: mean survival time, dose: 100.0 mg/kg/injection, schedule: Q04DX003 (ip), vehicle: saline with Tween-80
[10] = endpoint: mean survival time, dose: 200.0 mg/kg/injection, schedule: Q04DX003 (ip), vehicle: saline with Tween-80
[11] = endpoint: mean survival time, dose: 100.0 mg/kg/injection, schedule: Q01DX009 (ip), vehicle: saline sonified
[12] = endpoint: mean survival time, dose: 200.0 mg/kg/injection, schedule: Q01DX009 (ip), vehicle: saline sonified
[13] = endpoint: mean survival time, dose: 100.0 mg/kg/injection, schedule: Q04DX002 (ip), vehicle: saline with Tween-80

Measured: T/C

CCC(CN(C)C)C(=O)c1ccccc1 (stereo not given)
inactive: [1] 91 % of control | [2] 86 % of control | [3] 95 % of control

COc1cc([N+](=O)[O-])c2nc(/C=N/NC(N)=S)ccc2c1
inactive: endpoint: mean survival time, dose: 100.0 mg/kg/injection, schedule: Q01DX001 (ip), vehicle: saline 89 % of control

CCCC(=O)O
inactive: endpoint: mean survival time, dose: 1.25 mg/kg/injection, schedule: Q01DX009 (ip), vehicle: saline 96 % of control | endpoint: mean survival time, dose: 12.5 mg/kg/injection, schedule: Q01DX009 (ip), vehicle: saline 98 % of control | endpoint: mean survival time, dose: 25.0 mg/kg/injection, schedule: Q01DX009 (ip), vehicle: saline 96 % of control and 100 % of control | endpoint: mean survival time, dose: 50.0 mg/kg/injection, schedule: Q01DX009 (ip), vehicle: saline 96 % of control and 97 % of control | [4] 97 % of control and 100 % of control | [1] 102 % of control | [5] 95 % of control and 107 % of control | [3] 102 % of control | [6] 105 % of control

O.O=P(O)(O)O.[NH-]C1CCCCC1[NH-].[Pt+2] (stereo not given)
inactive: endpoint: mean survival time, dose: 50.0 mg/kg/injection, schedule: Q04DX003 (ip), vehicle: water 120 % of control

O=C1NC2(CCCC2)C(=O)N2CCCC12 (stereo not given)
inactive: endpoint: mean survival time, dose: 50.0 mg/kg/injection, schedule: Q04DX003 (ip), vehicle: Klucel (hydroxypropylcellulose) (HPC) 93 % of control | [7] 93 % of control | [8] 97 % of control

NCCS/C=C(\Br)C(=O)OCc1ccc(Br)cc1
inactive: [9] 96 % of control | [10] 98 % of control

CCCCNC(C)(C)C(SSSC(c1cccs1)C(C)(C)NCCCC)c1cccs1 (stereo not given)
inactive: [11] 100 % of control | [12] 103 % of control

[Cu+2].[NH-]C1(C(=O)O)CCCC1.[NH-]C1(C(=O)O)CCCC1
inactive: endpoint: mean survival time, dose: 2.5 mg/kg/injection, schedule: Q01DX009 (ip), vehicle: saline with Tween-80 89 % of control | endpoint: mean survival time, dose: 5.0 mg/kg/injection, schedule: Q01DX009 (ip), vehicle: saline with Tween-80 100 % of control | endpoint: mean survival time, dose: 5.0 mg/kg/injection, schedule: Q04DX003 (ip), vehicle: saline 91 % of control | endpoint: mean survival time, dose: 10.0 mg/kg/injection, schedule: Q01DX009 (ip), vehicle: saline with Tween-80 94 % of control

N#CC(C#N)=C/C=C/c1cccc([N+](=O)[O-])c1
inactive: endpoint: mean survival time, dose: 3.12 mg/kg/injection, schedule: Q01DX009 (ip), vehicle: Klucel (hydroxypropylcellulose) (HPC) 101 % of control | endpoint: mean survival time, dose: 6.25 mg/kg/injection, schedule: Q01DX009 (ip), vehicle: Klucel (hydroxypropylcellulose) (HPC) 109 % of control | endpoint: mean survival time, dose: 12.5 mg/kg/injection, schedule: Q01DX009 (ip), vehicle: Klucel (hydroxypropylcellulose) (HPC) 104 % of control

Nc1ccc(Cl)c([N+](=O)[O-])c1
inactive: [7] 94 % of control | [8] 91 % of control | endpoint: mean survival time, dose: 400.0 mg/kg/injection, schedule: Q04DX003 (ip), vehicle: Klucel (hydroxypropylcellulose) (HPC) 89 % of control

O=C1OC2C(I)C3CC1C2C3 (stereo not given)
inactive: [9] 96 % of control | [10] 96 % of control

O=C(O)/C=C\C(=O)Nc1ccccc1
inactive: endpoint: mean survival time, dose: 100.0 mg/kg/injection, schedule: Q01DX009 (ip), vehicle: saline with Tween-80 93 % of control | [9] 109 % of control | endpoint: mean survival time, dose: 200.0 mg/kg/injection, schedule: Q01DX009 (ip), vehicle: saline with Tween-80 96 % of control | [10] 101 % of control | endpoint: mean survival time, dose: 400.0 mg/kg/injection, schedule: Q01DX009 (ip), vehicle: saline with Tween-80 96 % of control | endpoint: mean survival time, dose: 400.0 mg/kg/injection, schedule: Q04DX003 (ip), vehicle: saline with Tween-80 97 % of control

C/C=C/C=C/C(=O)c1ccc(OC)cc1O
inactive: endpoint: mean survival time, dose: 50.0 mg/kg/injection, schedule: Q04DX002 (ip), vehicle: saline with Tween-80 86 % of control | [13] 101 % of control | [2] 89 % of control | endpoint: mean survival time, dose: 400.0 mg/kg/injection, schedule: Q04DX002 (ip), vehicle: saline with Tween-80 89 % of control

CN(C)N=Nc1ccc(C#N)cc1
inactive: endpoint: mean survival time, dose: 7.37 mg/kg/injection, schedule: Q01DX009 (ip), vehicle: Klucel (hydroxypropylcellulose) (HPC) 100 % of control | endpoint: mean survival time, dose: 14.75 mg/kg/injection, schedule: Q01DX009 (ip), vehicle: Klucel (hydroxypropylcellulose) (HPC) 100 % of control | endpoint: mean survival time, dose: 29.5 mg/kg/injection, schedule: Q01DX009 (ip), vehicle: Klucel (hydroxypropylcellulose) (HPC) 108 % of control | endpoint: mean survival time, dose: 59.0 mg/kg/injection, schedule: Q01DX009 (ip), vehicle: Klucel (hydroxypropylcellulose) (HPC) 108 % of control | endpoint: mean survival time, dose: 118.0 mg/kg/injection, schedule: Q01DX009 (ip), vehicle: Klucel (hydroxypropylcellulose) (HPC) 120 % of control and 107 % of control

[Co].[N-]=C=S.[N-]=C=S.[N-]=C=S.[NH2-].[NH2-].[NH2-]
inactive: endpoint: mean survival time, dose: 50.0 mg/kg/injection, schedule: Q01DX001 (ip), vehicle: saline with Tween-80 98 % of control and 101 % of control

COc1ccc(C(O)c2ccccc2S(=O)(=O)N(C)C)cc1 (stereo not given)
inactive: [11] 105 % of control | [12] 96 % of control | endpoint: mean survival time, dose: 400.0 mg/kg/injection, schedule: Q01DX009 (ip), vehicle: saline sonified 93 % of control

CCNC(=O)OCC1C2=C(C(=O)C(C)=C(N)C2=O)N2CC3C(N3C)C12OC (stereo not given)
inactive: endpoint: mean survival time, dose: 133.0 mg/kg/injection, schedule: Q01DX001 (ip), vehicle: carboxymethylcellulose (CMC) 118 % of control | endpoint: mean survival time, dose: 300.0 mg/kg/injection, schedule: Q01DX001 (ip), vehicle: carboxymethylcellulose (CMC) 111 % of control

Nc1nnc(Cl)s1
inactive: endpoint: mean survival time, dose: 100.0 mg/kg/injection, schedule: Q01DX001 (ip), vehicle: saline with Tween-80 108 % of control | endpoint: mean survival time, dose: 200.0 mg/kg/injection, schedule: Q01DX001 (ip), vehicle: saline with Tween-80 104 % of control | endpoint: mean survival time, dose: 400.0 mg/kg/injection, schedule: Q01DX001 (ip), vehicle: saline with Tween-80 97 % of control

c1ccc2c(-c3cnc(-c4ccc(-c5ncc(-c6cccc7ccccc67)o5)cc4)o3)cccc2c1
inactive: endpoint: mean survival time, dose: 75.0 mg/kg/injection, schedule: Q01DX001 (ip), vehicle: saline 100 % of control | endpoint: mean survival time, dose: 150.0 mg/kg/injection, schedule: Q01DX001 (ip), vehicle: saline 102 % of control | endpoint: mean survival time, dose: 300.0 mg/kg/injection, schedule: Q01DX001 (ip), vehicle: saline 97 % of control

CCN(CC)CC(=O)Nc1c(Cl)cccc1Cl
inactive: [4] 98 % of control | [1] 104 % of control | [5] 92 % of control | [3] 108 % of control | [6] 102 % of control

CCOC(=O)CCC(NC(=O)c1ccc(NCC2CCc3nc(N)[nH]c(=O)c3N2)cc1)C(=O)OCC (stereo not given)
inactive: endpoint: median survival time, dose: 10.0 mg/kg/injection, schedule: Q01DX005 (ip), vehicle: distilled water + Tween-80 97 % of control | endpoint: median survival time, dose: 20.0 mg/kg/injection, schedule: Q01DX005 (ip), vehicle: distilled water + Tween-80 102 % of control | endpoint: median survival time, dose: 40.0 mg/kg/injection, schedule: Q01DX005 (ip), vehicle: distilled water + Tween-80 100 % of control | endpoint: median survival time, dose: 80.0 mg/kg/injection, schedule: Q01DX005 (ip), vehicle: distilled water + Tween-80 96 % of control | endpoint: median survival time, dose: 160.0 mg/kg/injection, schedule: Q01DX005 (ip), vehicle: distilled water + Tween-80 100 % of control

CN(C)C(=O)Sc1ccc(S(=O)(=O)F)cc1F
inactive: [13] 91 % of control | [2] 91 % of control

COC(=O)c1cn(C2OC(CO)C(O)C2O)c2ncnc(N)c12 (stereo not given)
inactive: endpoint: mean survival time, dose: 3.12 mg/kg/injection, schedule: Q01DX009 (ip), vehicle: water 104 % of control | endpoint: mean survival time, dose: 6.25 mg/kg/injection, schedule: Q01DX009 (ip), vehicle: water 112 % of control | endpoint: mean survival time, dose: 12.5 mg/kg/injection, schedule: Q01DX009 (ip), vehicle: water 122 % of control
